Experimental data taken from US20100189766A1, “SUBSTANCE DELIVERING PUNCTUM IMPLANTS AND METHODS” (QLT PLUG DELIVERY, INC., priority 2008, published 2010).

Experiment: Diffusion or passage of latanoprost from the substance insert through the wall of the punctum plug
Format: physicochemical
Description: In applications where it is desired to deliver the therapeutic or diagnostic substance to or through the cornea or the eye it is desirable to cause the substance to become dissolved in the tear film TF which covers the cornea of the eye, while deterring or minimizing untoward loss of substance through other routes, such as through direct absorption into tissues surrounding the punctum and/or canaliculus LC in which the device is implanted (referred to generally herein as “pericanalicular tissue absorption”) or by drainage through the naso-lacrimal system into the nose. One way to limit or deter such loss of substance is to render all or part of the punctum plug 12, 12a impervious to the substance so that the substance cannot diffuse or pass through the wall of the punctum plug 12, 12a. This may be particularly important in embodiments where the punctum plug 12, 12a is formed of silicone or other material through which the substance can pass. […] The substance insert receiving portion 20b may have the same configuration as either of those substance insert receiving portions 20, 20a described above. However, in this embodiment, a coating 60 has been applied to the outer surface of the side wall of the substance insert receiving portion 20b. Such coating may also be applied to other portions of the punctum plug 12b or to the entire punctum plug 12b. […]

CC(C)OC(=O)CCC/C=C\C[C@@H]1[C@@H](CC[C@@H](O)CCc2ccccc2)[C@H](O)C[C@@H]1O [latanoprost]
diffusion or passage through the wall of the punctum plug (punctum plug formed of silicone, no coating, substance insert contains latanoprost): some of the latanoprost will diffuse or pass through the wall of the punctum plug
loss by diffusion or passage through the punctum plug (substance-impervious coating 60 applied to outer surface of the substance insert receiving portion and/or other portions of the punctum plug): substantially prevented
